Experimental data as given in the supplement of paper PMC11451515.

Assays:
Conditions in all cases: 48 h
NOMO1 [1] = experiment: cell viability relative to DMSO control; higher = less cytotoxic
Method in brief: (§1)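 Viability was expressed as a per-plate percentage of DMSO wells, with cell-free wells as background. Leukemia cells (NOMO1 or SEM at 500 cells/well, P12-Ichikawa at 1000 cells/well) were adapted for at least four passages in each medium and seeded in 1536-well plates (5 μl). Library compounds in DMSO were pin-dosed over an 11-point threefold series from 47 μM to 0.79 nM, and CellTiter-Glo One luminescence was read after 48 h at 37°C.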

P12-Ichikawa [2] = experiment: as above
Method in brief: as §1

SEM cells [3] = experiment: as above
Method in brief: as §1

NOMO1 [4] = experiment: AUC of viability dose-response curve (% viability x log10 dose units); higher = less sensitive
Method in brief: (§2)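 Leukemia cells adapted to each medium were seeded at 500 or 1000 cells/well in 1536-well plates and dosed with library compounds in DMSO at 11 threefold doses from 47 μM to 0.79 nM for 48 h at 37°C. CellTiter-Glo One luminescence was normalised per plate to DMSO and cell-free wells, then fitted with a four-parameter log-logistic model over log10 doses. Area under the curve was taken from this fit by the trapezoidal rule, with curves above full viability scaled and curves failing quality control removed.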

P12-Ichikawa [5] = experiment: as above
Method in brief: as §2

SEM cells [6] = experiment: as above
Method in brief: as §2

Cc1[nH]c(/C=C2\C(=O)Nc3ccc([S+](=O)([O-])N(C)c4cccc(Cl)c4)cc32)c(C)c1C(=O)N1CCN(C)CC1
cell viability [%]
Conditions	NOMO1 [1]	P12-Ichikawa [2]	SEM cells [3]
HPLM + 10% dialyzed FBS, 0.000781 µM	114	118	101
HPLM + 10% dialyzed FBS, 0.00234 µM	131	130	120
HPLM + 10% dialyzed FBS, 0.00702 µM	123	124	113
HPLM + 10% dialyzed FBS, 0.0211 µM	103	119	125
HPLM + 10% dialyzed FBS, 0.0632 µM	119	126	129
HPLM + 10% dialyzed FBS, 0.19 µM	99.2	127	108
HPLM + 10% dialyzed FBS, 0.569 µM	115	119	114
HPLM + 10% dialyzed FBS, 1.71 µM	120	110	98.3
HPLM + 10% dialyzed FBS, 5.12 µM	109	111	71.5
HPLM + 10% dialyzed FBS, 15.4 µM	103	76.7	38.6
HPLM + 10% dialyzed FBS, 46.1 µM	10.1	0.631	2.39
RPMI 5 mM glucose + 10% FBS, 0.000781 µM	–	–	98.4
RPMI 5 mM glucose + 10% FBS, 0.00234 µM	–	–	111
RPMI 5 mM glucose + 10% FBS, 0.00702 µM	–	–	118
RPMI 5 mM glucose + 10% FBS, 0.0211 µM	–	–	107
RPMI 5 mM glucose + 10% FBS, 0.0632 µM	–	–	96.9
RPMI 5 mM glucose + 10% FBS, 0.19 µM	–	–	82
RPMI 5 mM glucose + 10% FBS, 0.569 µM	–	–	106
RPMI 5 mM glucose + 10% FBS, 1.71 µM	–	–	86.5
RPMI 5 mM glucose + 10% FBS, 5.12 µM	–	–	54.3
RPMI 5 mM glucose + 10% FBS, 15.4 µM	–	–	31.3
RPMI 5 mM glucose + 10% FBS, 46.1 µM	–	–	1.69

AUC of viability dose-response curve
Conditions	NOMO1 [4]	P12-Ichikawa [5]	SEM cells [6]
HPLM + 10% dialyzed FBS	451	436	393
RPMI 5 mM glucose + 10% FBS	462	430	379
RPMI 5 mM glucose + 10% dialyzed FBS	456	432	368

NC1CCC(N[C@@H]2C[C@H]2c2ccccc2)CC1 (some centres undefined)
cell viability [%]
Conditions	NOMO1 [1]	P12-Ichikawa [2]	SEM cells [3]
HPLM + 10% dialyzed FBS, 0.000781 µM	78.6	87.9	75.5
HPLM + 10% dialyzed FBS, 0.00234 µM	92.8	92.4	90
HPLM + 10% dialyzed FBS, 0.00702 µM	94.8	94.6	87.5
HPLM + 10% dialyzed FBS, 0.0211 µM	93.3	94.5	87.5
HPLM + 10% dialyzed FBS, 0.0632 µM	94.2	102	92.9
HPLM + 10% dialyzed FBS, 0.19 µM	108	102	92.8
HPLM + 10% dialyzed FBS, 0.569 µM	117	105	93.7
HPLM + 10% dialyzed FBS, 1.71 µM	108	99.5	76.4
HPLM + 10% dialyzed FBS, 5.12 µM	107	106	83.2
HPLM + 10% dialyzed FBS, 15.4 µM	111	94.7	82.3
HPLM + 10% dialyzed FBS, 46.1 µM	92	98.5	81.5
RPMI 5 mM glucose + 10% FBS, 0.000781 µM	95.3	92	120
RPMI 5 mM glucose + 10% FBS, 0.00234 µM	88.9	94.6	126
RPMI 5 mM glucose + 10% FBS, 0.00702 µM	101	106	114
RPMI 5 mM glucose + 10% FBS, 0.0211 µM	104	102	115
RPMI 5 mM glucose + 10% FBS, 0.0632 µM	101	102	119
RPMI 5 mM glucose + 10% FBS, 0.19 µM	89.4	100	124
RPMI 5 mM glucose + 10% FBS, 0.569 µM	94.4	95	146
RPMI 5 mM glucose + 10% FBS, 1.71 µM	89.8	76.6	106
RPMI 5 mM glucose + 10% FBS, 5.12 µM	94.3	100	111
RPMI 5 mM glucose + 10% FBS, 15.4 µM	100	102	105
RPMI 5 mM glucose + 10% FBS, 46.1 µM	93.3	91.2	98.9
RPMI 5 mM glucose + 10% dialyzed FBS, 0.000781 µM	95.5	92.2	84.2
RPMI 5 mM glucose + 10% dialyzed FBS, 0.00234 µM	97	98.1	98.5
RPMI 5 mM glucose + 10% dialyzed FBS, 0.00702 µM	96	105	99.8
RPMI 5 mM glucose + 10% dialyzed FBS, 0.0211 µM	96.8	99	96.7
RPMI 5 mM glucose + 10% dialyzed FBS, 0.0632 µM	100	96.5	98
RPMI 5 mM glucose + 10% dialyzed FBS, 0.19 µM	96.7	109	96.3
RPMI 5 mM glucose + 10% dialyzed FBS, 0.569 µM	85.5	103	106
RPMI 5 mM glucose + 10% dialyzed FBS, 1.71 µM	93.8	97.8	81.9
RPMI 5 mM glucose + 10% dialyzed FBS, 5.12 µM	99.7	98.2	92.4
RPMI 5 mM glucose + 10% dialyzed FBS, 15.4 µM	88	88.9	81.4
RPMI 5 mM glucose + 10% dialyzed FBS, 46.1 µM	84	84	74

AUC of viability dose-response curve
Conditions	NOMO1 [4]	P12-Ichikawa [5]	SEM cells [6]
HPLM + 10% dialyzed FBS	450	463	409
RPMI 5 mM glucose + 10% FBS	456	461	444
RPMI 5 mM glucose + 10% dialyzed FBS	450	467	441

Nc1ccccc1NC(=O)c1ccc(CNc2nccc(-c3cccnc3)n2)cc1
cell viability [%]
Conditions	NOMO1 [1]	P12-Ichikawa [2]	SEM cells [3]
HPLM + 10% dialyzed FBS, 0.000781 µM	111	106	98.4
HPLM + 10% dialyzed FBS, 0.00234 µM	115	107	101
HPLM + 10% dialyzed FBS, 0.00702 µM	117	108	117
HPLM + 10% dialyzed FBS, 0.0211 µM	118	113	109
HPLM + 10% dialyzed FBS, 0.0632 µM	119	110	119
HPLM + 10% dialyzed FBS, 0.19 µM	117	120	110
HPLM + 10% dialyzed FBS, 0.569 µM	105	113	73.1
HPLM + 10% dialyzed FBS, 1.71 µM	72.1	85.6	25.5
HPLM + 10% dialyzed FBS, 5.12 µM	23.4	7.68	8.57
HPLM + 10% dialyzed FBS, 15.4 µM	9.43	6.63	6.62
HPLM + 10% dialyzed FBS, 46.1 µM	9.03	7	7.25
RPMI 5 mM glucose + 10% FBS, 0.000781 µM	90.9	101	89.7
RPMI 5 mM glucose + 10% FBS, 0.00234 µM	113	106	94.4
RPMI 5 mM glucose + 10% FBS, 0.00702 µM	103	109	91.6
RPMI 5 mM glucose + 10% FBS, 0.0211 µM	103	110	97.6
RPMI 5 mM glucose + 10% FBS, 0.0632 µM	122	111	105
RPMI 5 mM glucose + 10% FBS, 0.19 µM	114	110	105
RPMI 5 mM glucose + 10% FBS, 0.569 µM	97.8	114	69.4
RPMI 5 mM glucose + 10% FBS, 1.71 µM	83.2	71.1	21.8
RPMI 5 mM glucose + 10% FBS, 5.12 µM	27.2	9.5	7.2
RPMI 5 mM glucose + 10% FBS, 15.4 µM	9.84	6.39	6.22
RPMI 5 mM glucose + 10% FBS, 46.1 µM	8.73	6.22	6.49
RPMI 5 mM glucose + 10% dialyzed FBS, 0.000781 µM	108	109	92.7
RPMI 5 mM glucose + 10% dialyzed FBS, 0.00234 µM	117	107	111
RPMI 5 mM glucose + 10% dialyzed FBS, 0.00702 µM	115	113	106
RPMI 5 mM glucose + 10% dialyzed FBS, 0.0211 µM	119	122	106
RPMI 5 mM glucose + 10% dialyzed FBS, 0.0632 µM	132	122	117
RPMI 5 mM glucose + 10% dialyzed FBS, 0.19 µM	114	117	105
RPMI 5 mM glucose + 10% dialyzed FBS, 0.569 µM	106	110	62.8
RPMI 5 mM glucose + 10% dialyzed FBS, 1.71 µM	74.7	83	17.5
RPMI 5 mM glucose + 10% dialyzed FBS, 5.12 µM	24.2	8.72	7.07
RPMI 5 mM glucose + 10% dialyzed FBS, 15.4 µM	12.2	7.24	6.52
RPMI 5 mM glucose + 10% dialyzed FBS, 46.1 µM	10.7	6.17	7.92

AUC of viability dose-response curve
Conditions	NOMO1 [4]	P12-Ichikawa [5]	SEM cells [6]
HPLM + 10% dialyzed FBS	351	355	312
RPMI 5 mM glucose + 10% FBS	364	349	306
RPMI 5 mM glucose + 10% dialyzed FBS	353	352	304
